Here are results for 1 substance from patent US7348305B2, “Inhibitor of cardiac tachyarrhythmias” (Department of Veterans Affairs, Rehabilitation, priority 2003, dated 2008).

Data set [1] concerns β-adrenergic receptor kinase (βARK). The data set is described as follows: βARK immunoblot of EBZ tissue 24 hr after LAD ligation (Model 1). The class given is in vivo, dog. Conditions: 24 hr after LAD ligation. As for the experimental part:
βARK immunoblots were used to estimate βARK expression (Yu et al., 2000).
Western Blot Analysis: Assessment of βARK content was conducted using standard SDS-PAGE and immunoblot techniques. Samples containing 100 μg of protein from myocardial extracts were electrophoresed using 10% SDS-PAGE and transferred to nitrocellulose membranes. The membrane was incubated with monoclonal anti-βARK (Upstate Biotechnology, Inc, Lake Placid, N.Y.), followed by exposure to peroxidase-linked anti-mouse IgG. Antibody binding was detected by a chemiluminescent method (ECL, Amersham Biosciences Corp, Piscataway, N.J.). Quantification of immunoreactive proteins was performed by densitometric scanning and with Image QuaNT software (Molecular Dynamics).
β-ARK, Proteasome and Ubiquitin Expression Assays: β-ARK, ubiquitinated β-ARK and proteasome in EBZ and RS tissues was determined by Western blot analysis. Samples were adjusted after protein concentration was assayed (BCA, Pierce Chemicals) to provide identical loads. 100 μg protein was combined with equal volume of SDS sample buffer, and electrophoresed on a 10% polyacrylamide gel. The blocked membranes were incubated with mouse anti β-ARK monoclonal antibody (Santa Cruz Biotechnology, Santa Cruz, Calif.) for 1-h at room temperature followed by anti-mouse IgG coupled to horseradish peroxidase and developed using an ECL western blotting kit (Amersham). The bands were scanned, stripped and reprobed with mouse anti-ubiquitin antibody (Santa Cruz Biotechnology, Santa Cruz, Calif.). The membrane was rescanned, stripped a second time and reprobed with rabbit anti-proteasome 20S C2 subunit polyclonal antibody (A.G. Scientific, Inc. CA). A separate control gel was included that was similarly treated, but reprobed with the identical Ab and band quality and density compared to the previous data obtained before stripping. Quantitation of immunoreactive bands was performed by densitometric scanning using ImageQuant software (Molecular Dynamics).
A general note: In western blotting, separated proteins are transferred to a membrane and probed.

The next data set relates to myocardial infarct. The data set is described as follows: Model 2: 2-hr LAD occlusion/4-hr reperfusion, infarct size. The data set is classed as in vivo, dog. As to the method: Model 2: Acute changes in infarct size. Seventeen 15-22 kg male mongrel dogs were anesthetized and respired as described above. Body temperature was maintained using a temperature-controlled operative table bed and fluid replacement. Two EKG leads (L-II and V-3) and arterial pressure (left femoral) were continuously monitored during the experiment. […] After 4 hours of reperfusion, the heart was removed and rinsed with room-temperature Tyrode's solution. Cannulae were placed into the proximal aorta and into the LAD artery at the site of occlusion for perfusion with Evans blue (0.1%) and TTZ (0.1%), respectively, at equal pressure (80 mmHg). The area at risk of infarction was delineated by its red color (surviving myocardium) or a pale color (infarct) with the remaining heart stained by Evan's blue. The heart was then sliced to provide a 5 mm thick section parallel to the AV groove. After storage overnight in buffered formalin, infarcted tissue, surviving myocardium within the anatomic area at risk of infarction, and left ventricle outside the area at risk of infarction were separated using a scalpel blade. Infarct mass, area at risk of infarction, left ventricular mass, and total heart mass were determined gravimetrically. Anti-TNFα Treatment: A dosage of 2 mg/kg hTNFR:Fc (supplied as etanercept, Amgen, Inc, Thousand Oaks, Calif.) or saline were injected IV into a forepaw vein at 24-hr and again 1-hr prior to LAD ligation. […] This dosage was used after consultation with the pharmaceutical corporate pharmacology section and based on unpublished internal data that this dosage would provide maximal sequestration of tissue and circulating TNFα.

Data set [2] relates to myeloperoxidase (MPO) activity. In words: Leukocyte infiltration by myeloperoxidase (MPO) activity, Model 2. The data set is classed as in vivo, dog. Conditions: etanercept pretreated. As for the experimental part:
Calculated Oxygen Requirement and Leukocyte Infiltration: The animal's oxygen requirement was estimated by calculation of the double product (heart rate x mean arterial pressure). The myocardial activity of myeloperoxidase (MPO), an enzyme occurring virtually exclusively in neutrophils, was determined by using a modification of the method of Bradley (Mullane et al., 1985). Change in absorbance was measured spectrophotometrically in the supernatants of homogenized myocardium. One unit of MPO is defined as the quantity of enzyme hydrolyzing […] of peroxide per minute at 25° C.

Data set [3] is described as follows: Side effects of IV injection in dogs. The data set is classed as in vivo, dog. The settings on record: 2 mg/kg IV into a forepaw vein at 24-hr and 1-hr prior to LAD ligation. As for the experimental part: Anti-TNFα Treatment: A dosage of 2 mg/kg hTNFR:Fc (supplied as etanercept, Amgen, Inc, Thousand Oaks, Calif.) or saline were injected IV into a forepaw vein at 24-hr and again 1-hr prior to LAD ligation. […] This dosage was used after consultation with the pharmaceutical corporate pharmacology section and based on unpublished internal data that this dosage would provide maximal sequestration of tissue and circulating TNFα.

The subject of the next data set is congestive heart failure. The settings on record: cited from earlier work.
[4] abbreviates: etanercept pretreated, 2-hr occlusion/4-hr reperfusion.

Regarding etanercept, the “βARK in EBZ as percentage of unoperated control tissue” value in data set [1] (etanercept 2 mg/kg pretreated, immunoblot, n=5, saline 4.3%) worked out at 33.8±7.2%. Besides, the “salvage of βARK in EBZ tissue compared to saline control” value in data set [1] (etanercept pretreated) is 8 fold. Besides, in the data set with myocardial infarct (setting [4]), the “decrease in infarct size (% area at risk) compared to saline” value stood at 61% and the “decrease in infarct size (% left ventricular mass) compared to saline” value was determined as 54%. Besides, the “infarct size, % left ventricular mass (LV)” value in the data set with myocardial infarct (etanercept pretreated, 2-hr occlusion/4-hr reperfusion, n=8, saline 13±1) is 6±1 % LV. In addition, the “infarct size, % area at risk (AR)” value in the data set on myocardial infarct (etanercept pretreated, 2-hr occlusion/4-hr reperfusion, n=8, saline 38±6) is recorded as 15±2 % AR. Besides, the “reduction of infarct size expressed as % left ventricular mass or % area at risk” value in the data set on myocardial infarct (etanercept pretreatment, Model 2, approximate summary) is recorded as “approximately 50%”. In data set [2] (Model 2, n=7, saline 11±2.6), the “leukocyte infiltration, myeloperoxidase ratio of ischemic to normal tissue” value worked out at 1.8±0.2. Further, in data set [2] (Model 2, versus saline), the “decrease in leukocyte accumulation within ischemically injured myocardium” value is 9 fold. Further, the “side effects of the injection” value in data set [3] is on record as “No side effects”. For the same substance, in the data set with congestive heart failure (human clinical trials (Anker et al., 2002)), the “benefit upon functional status or survival in congestive heart failure” value is given as “no significant benefits”. Moreover, the “safety of administration in patients with heart failure” value in the data set on congestive heart failure (human, in vivo) was “safe”.
